Data: ChEMBL document CHEMBL5291721, “A preclinical secondary pharmacology resource illuminates target-adverse drug reaction associations of marketed drugs” (Nat Commun, 2023)

Experiments:
Androgen receptor = target: T1, Androgen receptor (Rattus norvegicus, UniProt P15207); assay type: functional
T1 sequence (P15207 whole entry): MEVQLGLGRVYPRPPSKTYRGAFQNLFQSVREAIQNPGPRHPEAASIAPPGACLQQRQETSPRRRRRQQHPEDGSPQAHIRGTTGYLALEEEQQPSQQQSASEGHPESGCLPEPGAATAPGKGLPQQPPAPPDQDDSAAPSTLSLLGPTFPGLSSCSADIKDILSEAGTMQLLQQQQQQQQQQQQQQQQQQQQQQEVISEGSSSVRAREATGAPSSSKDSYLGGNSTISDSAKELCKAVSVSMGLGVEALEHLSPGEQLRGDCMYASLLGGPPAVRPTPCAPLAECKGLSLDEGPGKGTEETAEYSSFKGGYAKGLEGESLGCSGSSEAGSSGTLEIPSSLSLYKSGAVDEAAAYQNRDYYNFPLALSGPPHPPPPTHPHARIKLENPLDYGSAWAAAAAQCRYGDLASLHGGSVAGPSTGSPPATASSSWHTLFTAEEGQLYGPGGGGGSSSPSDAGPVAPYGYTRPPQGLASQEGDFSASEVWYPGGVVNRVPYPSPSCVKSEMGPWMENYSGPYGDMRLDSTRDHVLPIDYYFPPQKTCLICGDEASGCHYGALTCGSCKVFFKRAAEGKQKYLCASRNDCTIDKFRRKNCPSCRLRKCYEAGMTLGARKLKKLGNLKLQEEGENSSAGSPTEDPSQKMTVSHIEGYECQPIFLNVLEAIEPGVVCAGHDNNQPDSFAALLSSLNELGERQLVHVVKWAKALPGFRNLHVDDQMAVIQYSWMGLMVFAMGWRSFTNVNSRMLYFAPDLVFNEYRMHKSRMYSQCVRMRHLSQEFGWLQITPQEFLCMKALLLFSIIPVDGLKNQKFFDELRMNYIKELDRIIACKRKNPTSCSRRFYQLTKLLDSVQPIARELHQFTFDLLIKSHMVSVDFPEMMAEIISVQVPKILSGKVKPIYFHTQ

[1] = target: Voltage-dependent L-type calcium channel subunit alpha-1C (Homo sapiens, UniProt Q13936); assay type: functional, cell-based
[2] = target: Synaptic vesicular amine transporter (Rattus norvegicus, UniProt Q01827); assay type: functional
[3] = target: T2, Muscarinic acetylcholine receptor M4 (Homo sapiens, UniProt P08173)
T2 sequence (P08173 whole entry): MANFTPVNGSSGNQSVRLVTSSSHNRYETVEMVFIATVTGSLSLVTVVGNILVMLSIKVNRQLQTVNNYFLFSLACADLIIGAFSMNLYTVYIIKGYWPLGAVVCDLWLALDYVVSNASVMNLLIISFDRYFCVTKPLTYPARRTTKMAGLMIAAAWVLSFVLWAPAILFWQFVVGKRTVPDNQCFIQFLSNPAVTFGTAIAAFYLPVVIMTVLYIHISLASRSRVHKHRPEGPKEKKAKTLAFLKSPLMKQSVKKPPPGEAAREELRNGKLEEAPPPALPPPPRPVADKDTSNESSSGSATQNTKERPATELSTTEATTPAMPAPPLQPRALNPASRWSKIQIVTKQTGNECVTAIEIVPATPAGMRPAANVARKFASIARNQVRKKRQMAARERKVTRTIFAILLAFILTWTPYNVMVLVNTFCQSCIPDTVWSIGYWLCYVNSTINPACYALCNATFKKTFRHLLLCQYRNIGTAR

[4] = target: T3, Muscarinic acetylcholine receptor M5 (Homo sapiens, UniProt P08912)
T3 sequence (P08912 whole entry): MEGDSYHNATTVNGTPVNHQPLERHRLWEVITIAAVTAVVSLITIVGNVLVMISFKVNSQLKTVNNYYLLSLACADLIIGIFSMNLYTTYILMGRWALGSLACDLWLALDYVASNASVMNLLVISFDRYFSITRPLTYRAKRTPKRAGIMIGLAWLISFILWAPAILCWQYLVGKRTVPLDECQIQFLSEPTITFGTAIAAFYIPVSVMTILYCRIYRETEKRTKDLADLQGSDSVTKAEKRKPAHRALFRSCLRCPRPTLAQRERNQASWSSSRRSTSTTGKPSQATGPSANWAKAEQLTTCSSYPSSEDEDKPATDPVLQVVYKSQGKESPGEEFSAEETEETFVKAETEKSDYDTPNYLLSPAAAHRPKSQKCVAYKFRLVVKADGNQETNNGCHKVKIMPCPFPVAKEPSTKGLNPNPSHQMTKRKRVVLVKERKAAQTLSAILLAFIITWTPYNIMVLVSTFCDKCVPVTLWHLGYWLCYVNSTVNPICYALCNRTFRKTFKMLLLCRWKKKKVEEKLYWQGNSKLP

[5] = target: Vascular endothelial growth factor receptor 2 (Homo sapiens, UniProt P35968); assay type: functional
Thromboxane A2 receptor [6] = target: T4, Thromboxane A2 receptor (Homo sapiens, UniProt P21731); assay type: functional, cell-based
T4 sequence (P21731 whole entry): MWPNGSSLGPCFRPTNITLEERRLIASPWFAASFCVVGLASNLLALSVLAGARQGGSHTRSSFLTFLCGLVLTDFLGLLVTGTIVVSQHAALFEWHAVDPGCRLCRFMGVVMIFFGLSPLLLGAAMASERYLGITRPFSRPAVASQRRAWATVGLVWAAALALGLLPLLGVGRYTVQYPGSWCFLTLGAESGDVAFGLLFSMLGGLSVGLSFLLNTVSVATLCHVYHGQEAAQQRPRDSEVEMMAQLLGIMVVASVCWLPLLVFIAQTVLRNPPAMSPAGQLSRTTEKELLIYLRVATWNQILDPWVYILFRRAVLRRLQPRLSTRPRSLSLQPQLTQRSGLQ

[7] = target: Rod cGMP-specific 3',5'-cyclic phosphodiesterase subunit alpha (Homo sapiens, UniProt P16499); assay type: functional
Thromboxane A2 receptor [8] = target: T4, Thromboxane A2 receptor; assay type: functional
Note: assay procedure not described here.

Sequence of Synaptic vesicular amine transporter (Q01827 whole entry): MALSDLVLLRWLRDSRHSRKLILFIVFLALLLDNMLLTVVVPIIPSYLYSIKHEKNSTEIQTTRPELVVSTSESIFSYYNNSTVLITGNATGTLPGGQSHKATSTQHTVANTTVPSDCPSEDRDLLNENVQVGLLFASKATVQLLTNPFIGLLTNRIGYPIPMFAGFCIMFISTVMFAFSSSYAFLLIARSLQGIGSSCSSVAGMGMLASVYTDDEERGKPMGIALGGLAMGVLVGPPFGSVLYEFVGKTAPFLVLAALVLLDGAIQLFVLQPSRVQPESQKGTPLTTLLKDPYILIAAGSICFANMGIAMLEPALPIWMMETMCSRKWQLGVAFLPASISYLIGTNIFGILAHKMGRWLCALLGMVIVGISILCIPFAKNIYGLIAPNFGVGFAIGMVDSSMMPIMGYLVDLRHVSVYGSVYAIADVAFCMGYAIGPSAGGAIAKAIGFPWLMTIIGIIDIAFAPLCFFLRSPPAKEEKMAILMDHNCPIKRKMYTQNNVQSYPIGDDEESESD
Sequence of Vascular endothelial growth factor receptor 2 (P35968 whole entry): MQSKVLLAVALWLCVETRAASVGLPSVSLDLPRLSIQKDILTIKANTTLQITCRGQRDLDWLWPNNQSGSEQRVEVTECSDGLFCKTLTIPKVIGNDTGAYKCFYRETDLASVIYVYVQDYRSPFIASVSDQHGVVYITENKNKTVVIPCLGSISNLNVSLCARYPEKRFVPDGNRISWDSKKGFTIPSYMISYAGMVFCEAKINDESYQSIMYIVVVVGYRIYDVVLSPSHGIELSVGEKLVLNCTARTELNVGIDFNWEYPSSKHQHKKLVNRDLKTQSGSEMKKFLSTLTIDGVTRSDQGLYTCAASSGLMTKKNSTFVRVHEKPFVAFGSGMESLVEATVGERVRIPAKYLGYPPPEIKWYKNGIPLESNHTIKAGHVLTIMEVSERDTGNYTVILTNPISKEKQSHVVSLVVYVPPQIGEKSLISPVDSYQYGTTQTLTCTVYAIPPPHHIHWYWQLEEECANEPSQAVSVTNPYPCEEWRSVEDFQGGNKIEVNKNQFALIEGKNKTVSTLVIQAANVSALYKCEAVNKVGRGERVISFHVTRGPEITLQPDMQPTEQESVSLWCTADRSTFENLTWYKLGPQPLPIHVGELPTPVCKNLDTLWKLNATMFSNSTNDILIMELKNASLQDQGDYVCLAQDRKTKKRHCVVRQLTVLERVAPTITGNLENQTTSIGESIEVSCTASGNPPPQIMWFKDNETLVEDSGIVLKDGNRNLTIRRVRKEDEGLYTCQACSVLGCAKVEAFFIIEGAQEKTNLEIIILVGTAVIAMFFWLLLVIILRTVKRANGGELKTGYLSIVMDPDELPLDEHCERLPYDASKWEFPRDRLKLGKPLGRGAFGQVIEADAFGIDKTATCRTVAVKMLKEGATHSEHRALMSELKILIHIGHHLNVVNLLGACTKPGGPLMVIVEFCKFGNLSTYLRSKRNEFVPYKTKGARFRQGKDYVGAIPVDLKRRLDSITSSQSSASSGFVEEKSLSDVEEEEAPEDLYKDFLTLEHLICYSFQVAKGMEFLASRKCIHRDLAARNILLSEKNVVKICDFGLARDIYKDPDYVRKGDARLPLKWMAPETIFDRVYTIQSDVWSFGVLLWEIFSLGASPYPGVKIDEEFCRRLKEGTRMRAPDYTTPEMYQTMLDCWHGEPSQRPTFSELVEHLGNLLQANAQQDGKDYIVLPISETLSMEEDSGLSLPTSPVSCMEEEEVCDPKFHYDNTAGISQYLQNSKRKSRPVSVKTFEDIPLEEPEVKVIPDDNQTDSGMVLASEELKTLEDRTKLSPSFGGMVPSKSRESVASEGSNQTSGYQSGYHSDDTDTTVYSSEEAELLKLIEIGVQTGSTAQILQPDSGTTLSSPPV
Sequence of Rod cGMP-specific 3',5'-cyclic phosphodiesterase subunit alpha (P16499 whole entry): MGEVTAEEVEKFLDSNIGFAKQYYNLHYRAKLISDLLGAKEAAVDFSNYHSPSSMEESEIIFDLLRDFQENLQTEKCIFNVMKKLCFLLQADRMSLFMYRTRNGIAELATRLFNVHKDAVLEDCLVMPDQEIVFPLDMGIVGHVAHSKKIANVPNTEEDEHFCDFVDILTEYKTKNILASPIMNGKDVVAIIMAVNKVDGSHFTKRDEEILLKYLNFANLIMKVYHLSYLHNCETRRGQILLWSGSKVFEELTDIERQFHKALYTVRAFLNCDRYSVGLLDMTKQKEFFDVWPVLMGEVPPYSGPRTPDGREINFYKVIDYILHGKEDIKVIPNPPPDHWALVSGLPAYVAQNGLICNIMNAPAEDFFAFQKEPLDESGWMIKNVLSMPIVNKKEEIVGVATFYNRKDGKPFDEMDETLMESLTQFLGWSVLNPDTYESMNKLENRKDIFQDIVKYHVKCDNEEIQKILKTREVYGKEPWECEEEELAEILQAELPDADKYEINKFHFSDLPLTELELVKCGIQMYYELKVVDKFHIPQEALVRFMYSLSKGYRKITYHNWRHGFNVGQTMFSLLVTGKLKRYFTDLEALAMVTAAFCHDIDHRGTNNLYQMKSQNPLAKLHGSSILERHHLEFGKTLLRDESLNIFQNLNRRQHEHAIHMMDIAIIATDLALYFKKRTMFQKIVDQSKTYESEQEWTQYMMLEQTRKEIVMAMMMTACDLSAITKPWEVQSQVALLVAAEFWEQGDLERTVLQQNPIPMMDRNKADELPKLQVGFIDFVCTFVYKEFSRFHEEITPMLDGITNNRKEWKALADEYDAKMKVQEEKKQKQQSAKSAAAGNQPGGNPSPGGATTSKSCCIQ
Sequence of Voltage-dependent L-type calcium channel subunit alpha-1C (Q13936 whole entry): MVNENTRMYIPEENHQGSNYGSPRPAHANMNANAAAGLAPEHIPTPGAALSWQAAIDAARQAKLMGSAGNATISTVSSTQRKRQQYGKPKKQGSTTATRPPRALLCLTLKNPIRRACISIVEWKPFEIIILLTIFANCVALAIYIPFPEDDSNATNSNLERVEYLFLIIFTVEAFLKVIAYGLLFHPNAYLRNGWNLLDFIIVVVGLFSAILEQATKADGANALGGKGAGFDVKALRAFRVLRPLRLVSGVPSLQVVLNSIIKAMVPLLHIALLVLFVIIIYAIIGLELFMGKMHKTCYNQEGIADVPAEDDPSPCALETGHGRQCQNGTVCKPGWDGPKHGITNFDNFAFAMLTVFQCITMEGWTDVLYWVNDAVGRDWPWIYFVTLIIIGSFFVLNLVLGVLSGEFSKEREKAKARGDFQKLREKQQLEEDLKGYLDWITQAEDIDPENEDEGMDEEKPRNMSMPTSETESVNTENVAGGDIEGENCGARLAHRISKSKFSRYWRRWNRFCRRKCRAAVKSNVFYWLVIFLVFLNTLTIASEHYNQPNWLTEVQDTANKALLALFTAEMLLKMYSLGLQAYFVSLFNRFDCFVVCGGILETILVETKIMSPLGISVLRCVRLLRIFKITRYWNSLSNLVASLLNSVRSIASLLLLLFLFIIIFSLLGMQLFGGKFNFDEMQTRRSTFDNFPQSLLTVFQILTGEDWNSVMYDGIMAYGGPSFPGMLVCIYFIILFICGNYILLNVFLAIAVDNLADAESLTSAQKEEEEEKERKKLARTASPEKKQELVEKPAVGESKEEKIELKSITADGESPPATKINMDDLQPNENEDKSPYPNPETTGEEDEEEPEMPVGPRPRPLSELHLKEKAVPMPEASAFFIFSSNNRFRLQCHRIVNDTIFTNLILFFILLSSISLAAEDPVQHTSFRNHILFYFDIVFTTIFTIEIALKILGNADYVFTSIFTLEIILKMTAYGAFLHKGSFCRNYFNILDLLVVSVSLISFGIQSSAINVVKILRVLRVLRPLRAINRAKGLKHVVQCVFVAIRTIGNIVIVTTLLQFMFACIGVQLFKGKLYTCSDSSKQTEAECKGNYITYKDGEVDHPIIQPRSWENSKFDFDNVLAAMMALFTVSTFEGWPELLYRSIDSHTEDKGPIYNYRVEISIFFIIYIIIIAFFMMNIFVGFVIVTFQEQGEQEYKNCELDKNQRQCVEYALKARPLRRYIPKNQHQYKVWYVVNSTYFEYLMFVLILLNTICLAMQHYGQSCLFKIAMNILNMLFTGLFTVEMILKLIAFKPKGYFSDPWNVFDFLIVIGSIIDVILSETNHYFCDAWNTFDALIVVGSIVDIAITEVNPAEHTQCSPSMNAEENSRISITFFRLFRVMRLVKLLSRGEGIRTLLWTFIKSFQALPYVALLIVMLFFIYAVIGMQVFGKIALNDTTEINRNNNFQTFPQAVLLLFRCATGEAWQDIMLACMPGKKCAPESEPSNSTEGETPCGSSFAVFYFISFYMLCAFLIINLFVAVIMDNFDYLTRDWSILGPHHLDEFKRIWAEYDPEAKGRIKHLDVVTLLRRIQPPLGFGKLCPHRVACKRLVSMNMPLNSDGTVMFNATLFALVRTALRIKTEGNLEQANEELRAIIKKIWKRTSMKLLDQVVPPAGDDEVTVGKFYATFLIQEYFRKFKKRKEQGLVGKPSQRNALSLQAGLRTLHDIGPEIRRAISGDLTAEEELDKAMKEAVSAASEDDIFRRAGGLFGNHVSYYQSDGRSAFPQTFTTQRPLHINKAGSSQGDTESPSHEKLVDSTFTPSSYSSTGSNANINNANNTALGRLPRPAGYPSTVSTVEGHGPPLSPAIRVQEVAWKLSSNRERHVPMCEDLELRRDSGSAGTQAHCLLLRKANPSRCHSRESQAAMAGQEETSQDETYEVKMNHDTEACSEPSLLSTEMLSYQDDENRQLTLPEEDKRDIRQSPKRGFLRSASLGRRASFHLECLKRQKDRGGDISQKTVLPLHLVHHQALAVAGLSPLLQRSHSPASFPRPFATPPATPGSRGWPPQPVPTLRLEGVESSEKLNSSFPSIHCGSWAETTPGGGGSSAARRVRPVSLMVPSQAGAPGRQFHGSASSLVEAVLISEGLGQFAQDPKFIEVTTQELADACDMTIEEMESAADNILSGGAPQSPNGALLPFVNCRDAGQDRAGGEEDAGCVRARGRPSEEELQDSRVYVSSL

## CN(C)CC/C=C1\c2ccccc2CSc2ccccc21 [DOTHIEPIN]
Androgen receptor
  AC50: > 30 µM

## CC[C@@H](C(N)=O)N1CCCC1=O
[1]
  AC50: > 50 µM
[2]
  AC50: > 30 µM

## CCOc1ccccc1OCC1CNCCO1 (centres undefined) [VILOXAZINE]
[3]
  AC50: > 10 µM
[4]
  AC50: > 10 µM
[5]
  AC50: > 30 µM
Thromboxane A2 receptor [6]
  AC50: > 30 µM
[7]
  AC50: > 10 µM
Thromboxane A2 receptor [8]
  AC50: > 30 µM
